From patent US9073858B2, “Methods of targeted drug development” (priority 2010, dated 2015)
“Also recorded” adds a separate entry of the source. Read-outs that look alike come from different tables or passages of the source.

Tests used:
[1] = Stability on incubation with mouse liver microsomes (MLM); format: in vitro ADME; details: for MLM % Remaining@ 30 Min: percentage left after incubation with mouse liver microsomes for 30 minutes; for stability toward liver microsome incubation: mouse and human liver microsomes (MLM, HLM)
Procedure, shortened: (§1)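 Values are percent compound remaining after 30 min incubation with mouse or human liver microsomes.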

[2] = test system: EGF receptor-mediated cell proliferation; assay: Combinatorial studies with known EGFR inhibitors, median effect analysis (MTT assay)
Procedure: Studies were initiated to evaluate the ability of various compounds disclosed herein to synergize with several compounds known to inhibit the function of the EGF receptor in a cell proliferation assay (MTT assay).
The EGFR inhibitor and AD4 compound dilutions were then mixed 1:1 in a 96 well plate. 50 μl of the mix was then added to the cell plate.
A shifting of the inhibitor curve to the left indicates an increase in the effectiveness of the AD4-compound.

[3] = Stability on incubation with human liver microsomes (HLM); format: in vitro ADME; details: percentage left after incubation with human liver microsomes for 30 minutes
Procedure, shortened: as §1

HT-29 cells = assay: HT-29 Cell Proliferation Assay (MTT); format: cell-based; details: read-out: IC50 Value (μM) HT-29 Cells
Procedure: (§2) Cell proliferation is determined using the MTT assay. The MTT cell proliferation assay is a colorimetric assay system which measures the reduction of a tetrazolium component (MTT) into an insoluble formazan product by the mitochondria of viable cells. After incubation of the cells with the MTT reagent, DMSO is added to solubilize the colored crystals and the samples read at a wavelength of 560 nm. The amount of color produced is directly proportional to the number of viable cells.
(§3) 3-(4,5-Dimethylthiazol-2-yl)-2,5-diphenyltetrazolium Bromide (MTT) dye (Aesar, cat no. L11939) was prepared at 5 mg/ml in PBS. To each well, 20 μl of MTT solution was added to existing media and mixed thoroughly with 5 mins of gentle shaking at room temperature. Plates were incubated at 37° C., 5% CO2 for approximately 2 hrs. After 2-3 hrs incubation, media was aspirated out and plates were patted dry. […] Plates were incubated at 37° C., 5% CO2 for 10 min and mix thoroughly with 5 mins of gentle shaking at room temperature. Plates were read on the PolarStar plate reader at 560 nm. Percent (%) inhibition was calculated as 100%−(OD560 nm experimental-blank)×100%/OD560 nm control-blank. Blank=wells+serum free media+0.5% DMSO. Experimental=wells+cells+treatment+0.5% DMSO. Control=wells+cells+0.5% DMSO. IC50 values were calculated in GraphPad Prism using non-linear regression curve fitting. All statistical analyses was done either in GraphPad Prism or Microsoft Excel.
Briefly, compounds are added to cells plated in 96-well plates. […] The effect of the compounds on cell proliferation is analyzed using GraphPad Prism.
HT-29 cells are a colon cancer cell line that is utilized to assess the ability of compounds to inhibit the proliferation of cells in tumors of the colon.
For the HT-29 cell proliferation assay, on day 1, HT-29 cells are seeded at 3,000 cells/well in 100 μl media containing 10% FBS, 1× Pen-Strep, and 1× L-Glutamine in 96 well, tissue culture-treated plates. […] Working solutions of compounds were prepared (at […] in 100% DMSO). To 200 μl media, 20 μl of a 5× compound (diluted in plain media) was added for a final DMSO concentration of 0.5%. […] On day 5, plates were analyzed for cell growth using the MTT assay.

H1975 cells = assay: H1975 Cell Proliferation Assay (MTT); format: cell-based; details: read-out: IC50 Value (μM) H1975 Cells
Procedure: as §2, §3
Briefly, compounds are added to cells plated in 96-well plates. The cells are allowed to grow for 72 hours before MTT treatment. The effect of the compounds on cell proliferation is analyzed using GraphPad Prism.

A549 cells = assay: A549 Cell Proliferation Assay (MTT); format: cell-based
Procedure: Cell proliferation is determined using the MTT assay. The MTT cell proliferation assay is a colorimetric assay system which measures the reduction of a tetrazolium component (MTT) into an insoluble formazan product by the mitochondria of viable cells. After incubation of the cells with the MTT reagent, DMSO is added to solubilize the colored crystals and the samples read at a wavelength of 560 nm. The amount of color produced is directly proportional to the number of viable cells. […] L11939) was prepared at 5 mg/ml in PBS. […] Plates were read on the PolarStar plate reader at 560 nm. […] IC50 values were calculated in GraphPad Prism using non-linear regression curve fitting. All statistical analyses was done either in GraphPad Prism or Microsoft Excel. […] Briefly, compounds are added to cells plated in 96-well plates. The cells are allowed to grow for 72 hours before MTT treatment. The effect of the compounds on cell proliferation is analyzed using GraphPad Prism. A549 cells are a non-small cell lung cancer cell line that have wild type EGFR and p53 but have point mutations in KRAS gene which transform it into an oncogene. […] SH30071.03, lot no. ATB31500), 1% Pen Strep (Gibco, cat no. […] On day 2, working solutions of compounds at 200× were prepared. […] Plates were incubated for 72 hours before analyzing them with MTT (as described above).

[4] = test system: DNA fragmentation in A549 cells; assay: DNA Fragmentation Assay (Cell Death Detection ELISA); format: cell-based; details: for activation at 1 µM / activation at 10 µM / Emax at 1 µM / Emax at 10 µM: Homo sapiens; for activation at 1 µM / activation at 10 µM: A549, 24 h, read-out: % Increase over Background; for Emax at 1 µM / Emax at 10 µM: A549, read-out: % Increase Relative to Staurosporin; for induction of apoptosis in A549 cells (DNA fragmentation assay): 10 μM, FIG. 15
[5] = Combination Index with Iressa at 90% inhibition
[6] = Combination Index with Tykerb at 90% inhibition
[7] = Homo sapiens, A549, 72 h, read-out: IC50 Value (μM) A549 Cells
[8] = Homo sapiens, A549, read-out: IC50, cell proliferation in A549 or H1975 cells

SMILES | MLM % Remaining@ 30 Min [1] [%] | HLM % Remaining@ 30 Min [3] [%] | IC50 (HT-29 cells; Homo sapiens, HT-29, 72 h) [µM] | IC50 (H1975 cells; Homo sapiens, NCI-H1975, 72 h) [µM] | IC50 (A549 cells; [7]) [µM] | further results
Cc1cccc(NC(c2ccc(C(F)(F)F)cc2)c2ccc3cccnc3c2O)n1 (centres unmarked) [AD4-10628] | 3 | 45 |  |  |  | CI @ ED90 [2, 5]: 0.91; CI @ ED90 [2, 6]: 0.55; synergy with Tykerb ([2]; based on CI value): significant synergy; IC50 ([2]; read-out: IC50 Iressa + Compound (nM)): 93 nM
Cc1ccc2c(C)nc(Nc3nc(-c4ccccc4C)cc(=O)[nH]3)nc2c1 [AD4-11511] | 6 | 6 |  |  |  | CI @ ED90 [2, 5]: 0.93; CI @ ED90 [2, 6]: 0.87; shift in Tykerb's dose-response curve ([2]; in combination with Tykerb): leftward shift (i.e., greater potency); IC50 ([2]; read-out: IC50 Iressa + Compound, Iressa combined with the compound at a fixed constant ratio, MTT assay): 245 nM; IC50 ([2]; read-out: IC50 Tykerb + Compound, Tykerb combined with the compound at a fixed constant ratio, MTT assay): 118 nM
Cc1cc(Cl)cnc1NC(c1ccc(C(F)(F)F)cc1)c1ccc2cccnc2c1O (centres unmarked) [AD4-13041] | 81 | 100 | 1.1 | 0.17 | 0.11 | stability toward liver microsome incubation [1]: increased stability
Cc1cc(Cl)cnc1NC(c1ccc(C(F)(F)F)cc1F)c1ccc2cccnc2c1O (centres unmarked) [AD4-13042] | 99 | 101 | 1.3 | 0.13 | 0.11 | stability toward liver microsome incubation [1]: increased stability
Oc1c(C(Nc2ccc(Cl)cn2)c2cccc(Cl)c2Cl)ccc2cccnc12 (centres unmarked) [AD4-13086] | 37 | 72 | 1.2 | 0.15 | 0.16 | 
Oc1c(C(Nc2ccc(Cl)cn2)c2cc(Cl)ccc2Cl)ccc2cccnc12 (centres unmarked) [AD4-13095] | 60 | 88 | 5.4 | 0.44 | 0.11 | 
Cc1cc(NC(c2ccc(Cl)c(C(F)(F)F)c2)c2ccc3cccnc3c2O)ncc1Cl (centres unmarked) [AD4-13108] | 25 | 93 | 3.3 | 0.3 | 0.14 | 
Oc1c(C(Nc2ccc(F)cn2)c2cc(Cl)cc(Cl)c2Cl)ccc2cccnc12 (centres unmarked) [AD4-13111] | 87 | 92 |  | 0.37 | 0.14 | IC50 (HT-29 cells): 8.9 µM
Cc1cc(Cl)cnc1NC(c1cc(Cl)cc(Cl)c1)c1ccc2cccnc2c1O (centres unmarked) [AD4-13131] | 83 | 100 | 0.92 | 0.1 | 0.1 | IC50 (A549 cells; [8]): ≤ 0.1 µM
Oc1c(C(Nc2ccc(F)cn2)c2cc(Cl)cc(Cl)c2Cl)ccc2cccnc12 (centres unmarked) [AD4-13132] | 66 | 98 |  |  |  | IC50 (HT-29 cells): 1.6 µM; IC50 (H1975 cells): 0.31 µM; IC50 (A549 cells; read-out: IC50 Value (μM) A549 Cells): 0.17 µM
Cc1cc(Cl)cnc1NC(c1cc(Cl)ccc1Cl)c1ccc2cccnc2c1O (centres unmarked) [AD4-13137] |  |  | 0.78 | 0.12 | 0.16 | activation at 1 µM [4]: 182%; activation at 10 µM [4]: 628%; Emax at 1 µM [4]: 18%; Emax at 10 µM [4]: 55%
Oc1c(C(Nc2ncc(Cl)cc2F)c2ccc(Cl)cc2Cl)ccc2cccnc12 (centres unmarked) [AD4-13143] | 76 | 96 | 1.1 | 0.13 | 0.13 | 
Oc1c(C(Nc2ncc(Cl)cc2F)c2ccc(Cl)c(Cl)c2)ccc2cccnc12 (centres unmarked) [AD4-13150] | 85 | 100 | 1.9 | 0.45 | 0.14 | 
Cc1cc(NC(c2cccc(Cl)c2Cl)c2ccc3cccnc3c2O)ncc1Cl (centres unmarked) [AD4-13153] | 62 | 96 | 0.79 | 0.19 | 0.19 | 
Oc1c(C(Nc2ccc(C(F)(F)F)cn2)c2cccc(C(F)(F)F)c2)ccc2cccnc12 (centres unmarked) [AD4-13164] |  |  |  |  |  | activation at 1 µM [4]: 525%; activation at 10 µM [4]: 788%; Emax at 1 µM [4]: 39%; Emax at 10 µM [4]: 58%
Oc1c(C(Nc2ncc(C(F)(F)F)cc2F)c2ccc(Cl)cc2Cl)ccc2cccnc12 (centres unmarked) [AD4-13165] | 100 | 100 | 5 | 0.14 | 0.16 | induction of apoptosis in A549 cells (DNA fragmentation assay) [4]: induce apoptosis; stability toward liver microsome incubation [1]: increased stability; also recorded: good stability
Oc1c(C(Nc2cc(Cl)c(Cl)cn2)c2cccc(Cl)c2Cl)ccc2cccnc12 (centres unmarked) [AD4-13172] | 80 | 100 | 1.3 | 0.15 | 0.14 | 
Oc1c(C(Nc2ncc(F)cc2F)c2cc(Cl)cc(Cl)c2)ccc2cccnc12 (centres unmarked) [AD4-13176] |  |  |  |  |  | induction of apoptosis in A549 cells (DNA fragmentation assay) [4]: induce apoptosis
Oc1c(C(Nc2cc(Cl)c(Cl)cn2)c2ccc(Cl)c(Cl)c2)ccc2cccnc12 (centres unmarked) [AD4-13177] | 86 | 86 | 1.5 | 0.27 | 0.14 | 
Oc1c(C(Nc2cc(Cl)c(Cl)cn2)c2ccc(Cl)cc2Cl)ccc2cccnc12 (centres unmarked) [AD4-13178] | 83 | 100 | 0.79 | 0.19 | 0.084 | apoptotic activity ([4]; Caspase, DNA Fragmentation, Annexin-V): increased apoptotic activity; IC50 (A549 cells; [8]): ≤ 0.1 µM
Oc1c(C(Nc2cc(Cl)c(Cl)cn2)c2cc(Cl)ccc2Cl)ccc2cccnc12 (centres unmarked) [AD4-13179] |  |  | 4.1 | 0.14 | 0.14 | induction of apoptosis in A549 cells (DNA fragmentation assay) [4]: induce apoptosis
Cc1c(Cl)cnc(NC(c2ccc(Cl)cc2Cl)c2ccc3cccnc3c2O)c1F (centres unmarked) [AD4-13199] | 63 | 100 | 0.75 | 0.16 | 0.12 | activation at 1 µM [4]: 130%; activation at 10 µM [4]: 492%; Emax at 1 µM [4]: 15%; Emax at 10 µM [4]: 55%
Cc1nc(NC(c2ccc(Cl)cc2Cl)c2ccc3cccnc3c2O)c(Cl)cc1Cl (centres unmarked) [AD4-13206] | 93 | 99 | 2.1 | 0.36 | 0.074 | stability toward liver microsome incubation [1]: increased stability; also recorded: good stability; IC50 (A549 cells; [8]): ≤ 0.1 µM
CCc1cc(Cl)cnc1NC(c1ccc(Cl)cc1)c1ccc2cccnc2c1O (centres unmarked) [AD4-13225] |  |  |  |  |  | activation at 1 µM [4]: 702%; activation at 10 µM [4]: 697%; Emax at 1 µM [4]: 52%; Emax at 10 µM [4]: 52%
